From patent US20240216513A1, “FATTY ACID-BIFUNCTIONAL DEGRADER CONJUGATES AND THEIR METHODS OF USE” (Novartis AG, priority 2021, published 2024)
Like-named read-outs stand apart in the source and are kept apart here.

Assays:
[1] = tested on: TMD8 tumors; experiment: Efficacy in ectopic (subcutaneous) TMD8 tumor-bearing SCID/BEIGE mice, tumor volume; format: in vivo, mouse; conditions: 20 mgL/kg (unconjugated V)
Description: All animal experiments were performed according to procedures covered by permit number BS-1974, BS-1975 and BS-2904 issued by the Kantonales Veterinäramt Basel-Stadt and strictly adhered to the Eidgenössisches Tierschutzgesetz and the Eidgenössische Tierschutzverordnung. Female Sprague Dawley rat were obtained from Charles Rivers (Germany), female Balb/c mice from Charles Rivers (Italy) and female SCID/BEIGE (C.B-Igh-1b/GbmsTac-Prkdcscid-Lystbg N7) mice from Taconic. All the animals were housed in a pathogen-controlled environment with access to food and water ad libitum and they were identified with transponders.
Subcutaneous TMD8 tumors were induced by injecting tumor cells expanded in vitro in the right flank of SCID/BEIGE mice. As soon as the injection was finished, antagonization (naloxone, flumazenil and atipamezole injected s.c.) was injected and mice are put on a warming pad for recovery and carefully checked during that time.
For PK experiments, non-tumor bearing mice or rats were treated once (10 mL/kg) with a compound either i.v. or s.c. Serial blood samplings from the tail vein (5-20 μl) were collected during the course of the experiment. For PK/PD experiments in tumor-bearing mice, compound was administered once (10 mL/kg) either i.v. or s.c. Animals were randomized into groups of n=3 and tissue samples were collected at several time points. At the times indicated, animals were anaesthetized by exposure to 2-3% v/v isoflurane in medical oxygen. They were sacrificed without recovering from anesthetic after blood sampling into commercially prepared EDTA coated tubes (Milian, cat #TOM-14C) in order to extract plasma. The tissues were excised, weighted and rapidly frozen in liquid nitrogen. Later, tumors were cryogenic dry pulverized with the CryoPrep™ system (model CP-02, Covaris). For efficacy experiments in ectopic tumor-bearing mice, animals were randomized into groups of n=6 for a mean tumor size of 100 mm^3 and compound was administered either i.v. q3w or s.c. q2w. When implanted in brain, animals were randomized into groups of n=4 for a mean bioluminescence of 1.0-2.0E+06 [p/s]/[ρW/cm^2] and compound was administered i.v. qw. Tumor response were reported with the measures of tumor volumes or bioluminescence from the treatment start. Concentrations of compound in blood and tissues were determined simultaneously by UPLC/MS-MS. BTK and IL-10 levels in tumor were determined by Meso Scale Discovery (MSD).

[2] = In vivo pharmacokinetic study in mice (i.v. or s.c.), FAC and payload in blood; design: species or system mouse; conditions: for AUC: male, C57/B16, whole blood

COc1ccc(C(=O)N2CCC3(CCN(CCc4ccc(-c5cc6c(-c7cc(F)cc(NC(=O)c8ccc(C(C)(C)O)cc8F)c7C)ncnc6[nH]5)cc4)CC3)CC2)cc1N1CCC(=O)NC1=O [Compound V, N-(3-(6-(4-(2-(9-(3-(2,4-Dioxotetrahydropyrimidin-1(2H)-yl)-4-methoxybenzoyl)-3,9-diazaspiro[5.5]undecan-3-yl)ethyl)phenyl)-7H-pyrrolo[2,3-d]pyrimidin-4-yl)-5-fluoro-2-methylphenyl)-2-fluoro-4-(2-hydroxypropan-2-yl)benzamide]
Dosing frequency to achieve sustained 90% regression ([1]; i.v.): 2qw (85%) | Dosing frequency to achieve sustained 90% regression ([1]; s.c.): Not tolerated | Payload C0-uM (unconjugated degrader dosed, first payload cell) ([2]; API i.v., species taken as mouse, listed as note (1 umol/kg), head 10 umol/kg): 8.1 µM | AUC ([2]; iv, API i.v., species taken as mouse, listed as note (1 umol/kg), head 10 umol/kg, read-out: Payload AUC-uM.h (unconjugated degrader dosed, first payload cell)): 8.2 µM·h | AUC ([2]; sc, mouse, subcutaneous dosing, unconjugated Compound V at 1 umol/kg, read-out: Payload AUC): 8.2 µM·h
